The source made the active and inactive calls. No rule for the calls is given here. *1 amine or outer side, *2 acyl side, *3 side chain or, on linkers, in order; H or OH if unused. Where a SMILES comes first, the peptide text is derived from it. [ ]: non-standard residue; d: D form. X2 = CCC[C@@H](N[*:1])[C@H](C)C(=O)O[C@H](C(=O)[*:2])[C@@H](C)CC; X1 = CC(N[*:1])C(=O)C(C)(C)C(=O)[*:2]; NMeY = CN[C@@H](Cc1ccc(O)cc1)C(=O)O; NMeL = CN[C@@H](CC(C)C)C(=O)O; NMeV = CN[C@H](C(=O)O)C(C)C; NMeA = CN[C@@H](C)C(=O)O
What follows are compounds tested on HEK-293T NF-kB luciferase reporter counterscreen, luminescence (assay: inhibitors of HEK-293T NF-kB luciferase – HEK-293T cells, luminescence, counter-screen for T-cell antigen receptor NF-kB inhibitors, dose response (AID 489041)).
In the case of `CCCCCCCCCCCCCCCC[n+]1ccc(C(N)=O)cc1`, the IC50 is reported as 46.7 µM (inactive). `COc1ccc(-n2cc(-c3ccc(C)cc3)[n+]3c2SCC3)cc1` was tested, and the IC50 was 5.82 µM. For `C=C1C(O)[C@@H]2O[C@]3(CC[C@H](/C=C/C(C)[C@@H]4CC(C)=CC5(O[C@H](C[C@@](C)(O)CO)CCC5O)O4)O3)CC[C@H]2O[C@@H]1C(O)CC(C)[C@H]1OC2(CCCCO2)CCC1C` (stereo partly drawn), the IC50 was under 0.16 µM. For `COc1ccc(C2=NOC(C(=O)NCc3cccs3)C2)cc1OC` (stereo not drawn), the IC50 was 35.2 µM (inactive). Work on `CC(C)(C)OC(=O)NCCCCCc1cn(CC(=O)NCCCCCCCCCCC(=O)N2CCN(C(=O)OC(C)(C)C)CC2)nn1` yielded an IC50 of 0.22 µM. In the case of `Cn1nc(CC(=O)Nc2ccc(N3CCN(C(=O)OC(C)(C)C)CC3)cc2)c2ccccc2c1=O`, the IC50 is reported as 0.76 µM. Work on `COc1cc(C2C(C#N)=C(N)Oc3cc4c(cc32)OCO4)cc(OC)c1OC` (stereo not drawn) yielded an IC50 of 3.86 µM. `O=C(c1cc(-c2ccncc2)nc2c(Cl)cccc12)N1CCN(c2ccccc2F)CC1` was tested, and the IC50 was 12.5 µM. `C/C=C/COC(=O)c1[nH]c2c(c1C)C(=O)CC(c1ccco1)C2` (stereo not drawn) was tested, and the IC50 was 0.34 µM. `CC(=O)Nc1ccc(S(=O)(=O)N2c3ccccc3C(C)=CC2(C)C)cc1` gave an IC50 of 4.76 µM. For `CCC[C@H]1NC(=O)[C@H](C)N(C)C(=O)C(C)(C)C(=O)C(C)NC(=O)[C@H](Cc2ccc(OC)cc2)N(C)C(=O)[C@H](C(C)C)N(C)C(=O)CNC(=O)[C@H](CC(C)C)N(C)C(=O)CNC(=O)[C@H]([C@@H](C)CC)OC(=O)[C@H]1C` (stereo partly drawn) (cyclo(G[NMeL]G[NMeV][NMeY](Me)[X1][NMeA][X2])), the IC50 was 46.7 µM (inactive). In the case of `CCCCCCCCC[n+]1cccc2c3ccccc3ccc21`, the IC50 is reported as 0.55 µM. `CC/C=C/CC(=O)N[C@@H](c1ccccc1)[C@@H](O)C(=O)O[C@H]1C[C@@]2(O)[C@@H](OC(=O)c3ccccc3)C3[C@](C)(C(=O)[C@H](OC(C)=O)C(=C1C)C2(C)C)[C@@H](O)C[C@H]1OC[C@@]31OC(C)=O` (stereo partly drawn) was tested, and the IC50 was > 80 µM (inactive). For `CCSc1nc2ccccc2n1C(=O)/C=C\c1ccc(OC)c(OC)c1`, the IC50 was 18.2 µM. Work on `O=C(Nc1nc(-c2ccccc2)cs1)c1ccc(N2CCOCC2)c([N+](=O)[O-])c1` yielded an IC50 of 1.1 µM. For `CCOc1ccccc1C1CC(=O)Nc2cc3c(cc21)OCO3` (stereo not drawn), the IC50 was 6.14 µM. `CC(C)(C)c1nnc(N/N=C/c2ccccc2O)n(N)c1=O` was tested, and the IC50 was 28 µM (inactive). For `Cc1ccc(S(=O)(=O)NCc2ccncc2)c(C)c1C`, the IC50 was 0.3 µM. Work on `COc1ccc(Br)cc1/C(C)=N/NC1=NCCN1` yielded an IC50 of 9.87 µM. For `Cc1ccccc1NC1=C/C(=N\S(=O)(=O)c2cccs2)c2ccccc2C1=O`, the IC50 was 0.41 µM. `O=C(Nc1ccc(S(=O)(=O)N2CCCC2)cc1)c1ccc(CN2CCc3ccccc3C2)cc1` gave an IC50 of 0.73 µM. `O=C(N/N=C/c1ccccc1Cl)c1[nH]c2ccc(Br)cc2c1-c1ccccc1` was tested, and the IC50 was 38.3 µM (inactive). For `Cc1cc(C)cc(NC(=O)c2ccc([N+](=O)[O-])o2)c1`, the IC50 was 31.5 µM (inactive). Work on `CCCCN=C[C@]12CCC(O)CC1(O)CCC1[C@@H]2CC[C@]2(C)[C@H](C3C=CC(=O)O3)CCC12O` (stereo partly drawn) yielded an IC50 of 0.34 µM. With `COc1cccc(-c2cc(=O)c3cc(NC(=O)c4ccccc4)ccc3[nH]2)c1` the IC50 was > 80 µM (inactive). With `COc1cccc(CN(C)C(=O)c2cc(COc3ccc4ncccc4c3)on2)c1` the IC50 was 1.9 µM. In the case of `COc1ccc(C(=O)N(C)Cc2cnn(Cc3ccccc3)c2)cc1S(=O)(=O)N1CCOCC1`, the IC50 is reported as 22.9 µM (inactive). Work on `COc1cc(/C=C2/SC(=Nc3ccc(O)cc3)NC2=O)ccc1O` yielded an IC50 of 3.51 µM. `Cc1cc(/C=C2\Sc3ccccc3N2C)cc(C)[n+]1CC1CCCO1` (stereo not drawn) gave an IC50 of 3.74 µM. `O=Cc1cc2ccccc2nc1SCc1ccc(Cl)c(Cl)c1` was tested, and the IC50 was 5.54 µM. `Brc1ccc2c(c1)C(C1=NCCN1)c1ccccc1CS2` (stereo not drawn) was tested, and the IC50 was > 80 µM (inactive). For `COc1ccc(S(=O)(=O)Nc2cccc(-c3ccc4nncn4n3)c2)cc1F`, the IC50 was 49.2 µM (inactive). Work on `COc1ccc(C)c(Cn2c(-c3nonc3N)nc3ccccc32)c1` yielded an IC50 of 1.84 µM. With `Cc1ccc(/C=C/c2ccc(N(C)C)cc2)[n+](C)c1` the IC50 was 2.7 µM. Work on `COc1ccccc1NC(=O)C1=C(C)Nc2nc3ccccc3n2C1c1cccs1` (stereo not drawn) yielded an IC50 of 13.6 µM. Compound `C[C@]12CC[C@H](O)C[C@H]1CC[C@@H]1[C@@H]2CC[C@]2(C)[C@@H](C3=CC(=O)OC3)CC[C@]12O` has an IC50 of under 0.16 µM. `CCC1CCCCN1C(=O)c1cc(COc2ccc3ncccc3c2)on1` (stereo not drawn) was tested, and the IC50 was 2.44 µM. With `Cc1cc(-c2ccc(S(=O)(=O)N(C)c3ccc(C)c(C)c3)s2)on1` the IC50 was 7.86 µM. With `CCOC(=O)N/N=C/c1c(C)nn(-c2cccc(C(F)(F)F)c2)c1Cl` the IC50 was 8.93 µM. `CCC(=O)N1c2ccc(S(=O)(=O)N3CCN(c4ccc([N+](=O)[O-])cc4)CC3)cc2CC1C` (stereo not drawn) was tested, and the IC50 was > 80 µM (inactive). With `CC1Cc2cc(-c3csc(NC(=O)Cc4cccs4)n3)ccc2N1S(C)(=O)=O` (stereo not drawn) the IC50 was 2 µM. In the case of `CCCC(=O)Nc1nc2ccc(NC(=O)c3c(F)c(F)c(OC)c(F)c3F)cc2s1`, the IC50 is reported as > 80 µM (inactive). Work on `CC(C)(C)c1ccc(C(=O)O/N=C(\N)c2ccccn2)cc1` yielded an IC50 of 0.23 µM. For `Cc1ccc(C)c(NS(=O)(=O)c2ccc(-c3cnc(C4CC4)o3)cc2)c1`, the IC50 was 0.42 µM. For `CCOC(=O)c1[nH]c(C)c(C(=O)c2cc(F)ccc2F)c1C`, the IC50 was 6.54 µM. In the case of `COc1cc(C2c3cc4c(cc3CC3COC(=O)C32)OCO4)cc(OC)c1OC` (stereo not drawn), the IC50 is reported as > 80 µM (inactive). With `Cc1ccc(C(=O)Nc2cccc(C(=O)O)c2)cc1` the IC50 was 4.1 µM. Work on `CC1CCN(c2c(NCc3ccc(C(=O)N4CCc5ccccc54)cc3)c(=O)c2=O)CC1` yielded an IC50 of 7.14 µM.

Reference: PubChem BioAssay AID489041 (Sanford-Burnham Center for Chemical Genomics, 2010)
